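How tested: cells in 96-well plates exposed to compound for 48 hours at five concentrations. GI50: concentration for 50% inhibition of growth. Definition used: TGI = concentration required for complete inhibition of growth.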
Legend:
Experiment in all cases: DTP human tumour cell line panel, 48 h
[1] = tested on: SNB-75 CNS
[2] = tested on: SK-MEL-28 melanoma
[3] = tested on: SNB-19 CNS
[4] = tested on: ACHN renal
[5] = tested on: RPMI-8226 leukemia
[6] = tested on: KM12 colon
[7] = tested on: SF-295 CNS
[8] = tested on: MOLT-4 leukemia
[9] = tested on: RXF 393 renal
[10] = tested on: T-47D breast

SMILES | TGI [1] [µM] | TGI [2] [µM] | TGI [3] [µM] | TGI [4] [µM] | TGI [5] [µM] | TGI [6] [µM] | TGI [7] [µM] | TGI [8] [µM] | TGI [9] [µM] | TGI [10] [µM] | GI50 [1] [µM] | GI50 [10] [µM] | GI50 [2] [µM] | GI50 [3] [µM] | GI50 [4] [µM] | GI50 [5] [µM] | GI50 [9] [µM] | GI50 [6] [µM] | GI50 [7] [µM] | GI50 [8] [µM]
CN(C)c1ccc(/C=C/C(=O)c2ccccc2)cc1Br | 45.7 | 30.5 | 41.3 | 51.1 | 44.4 | 33.3 | 45.7 | 69 |  |  |  |  |  |  |  |  |  |  |  | 
COc1ccc2c(c1)CCc1cnn(C3OC(COC(C)=O)C(OC(C)=O)C(OC(C)=O)C3OC(C)=O)c1-2 (stereo not drawn) | > 100 | > 100 | > 100 | > 100 | 53.8 | > 100 | > 100 | 74.3 |  |  |  |  |  |  |  |  |  |  |  | 
COC(=O)CCC(=O)CC(=O)C(=O)Nc1ccc(F)cc1 | > 100 | > 100 | > 100 | > 100 | > 100 | > 100 |  | > 100 | > 100 |  |  |  |  |  |  |  |  |  |  | 
CSC(=S)N/N=C/c1ccccc1 | > 100 | > 100 | > 100 | > 100 | > 100 | > 100 | > 100 |  | 76.9 | 72.1 |  |  |  |  |  |  |  |  |  | 
COC(=O)CSc1ccccc1 | > 100 |  | > 100 | > 100 | > 100 | > 100 | > 100 | > 100 | > 100 |  |  |  |  |  |  |  |  |  |  | 
COc1ccc2c(CC(=O)O)cc(=O)oc2c1 |  | > 100 | > 100 | > 100 | > 100 | > 100 | > 100 | > 100 | > 100 | > 100 |  |  |  |  |  |  |  |  |  | 
CNc1nnnn1C1OC(CO)C(O)C1O (stereo not drawn) | > 100 |  |  | > 100 | > 100 | > 100 | > 100 | > 100 | > 100 |  |  |  |  |  |  |  |  |  |  | 
C[C@]12CCC3[C@@H](C[C@H]4OC(=O)[C@@]35CCC(=O)C=C45)C1CCC2=O (stereo partly drawn) |  | > 100 | > 100 | > 100 | > 100 | > 100 | > 100 | > 100 | > 100 |  |  |  |  |  |  |  |  |  |  | 
COc1c(OC(C)=O)c(OC(C)=O)cc2c1-c1ccc(OC)c(=O)cc1C(NC(C)=O)CC2 (stereo not drawn) |  | > 100 | > 95.5 | > 100 | > 100 | 0.555 | 0.564 | > 85.8 |  | > 100 |  |  |  |  |  |  |  |  |  | 
Cc1cc2c(cc1C)N1Cc3c(ccc(C)c3C)N(C2)C1 (tested in a mixture with another compound) | > 100 | > 100 | > 100 |  | > 100 | > 100 | > 100 | > 100 | > 100 |  |  |  |  |  |  |  |  |  |  | 
O=C1C(c2ccc([N+](=O)[O-])cc2)=[N+]([O-])c2ccccc21 | 69 | 77.2 |  | > 100 | > 100 | > 100 | > 100 | > 100 | 60.4 |  |  |  |  |  |  |  |  |  |  | 
CCOC(=O)c1ccc2c(c1)[n+](=O)c(C(=O)c1ccc3ccccc3c1)c(C(F)(F)F)n2[O-] | 2.34 | 3.02 | 3.07 | 2.93 | 3.63 | 2.51 | 3.17 |  | 3.26 | 2.32 | 1.13 | 0.86 | 1.66 | 1.7 | 1.47 | 1.1 | 1.73 | 1.25 | 1.78 | 
CC(C)(C)C(=O)OCOP(=O)(OCOC(=O)C(C)(C)C)C1CCCN(OC(=O)c2ccccc2)C1=O (stereo not drawn) | 93.1 | 3.57 | 17 | 11.7 | 3.51 | 5.94 |  | 8.45 | 4.8 | 16.7 | 5.1 | 1.38 | 1.05 | 1.51 | 0.666 | 0.605 | 0.545 | 0.549 |  | 1.02
Cc1cc2cc(Cl)ccc2nc1C(=O)c1ccccc1 | 81.9 | > 100 | > 100 | > 100 | > 100 | > 100 | > 100 | > 100 | > 100 |  |  |  |  |  |  |  |  |  |  | 
COc1cc(C2c3cc4c(cc3[C@H](NC(=O)c3cccs3)C3COC(=O)[C@H]23)OCO4)cc(OC)c1OC (stereo partly drawn) | > 100 | 83.9 | > 100 | 18.7 | 19.3 |  |  | 24.5 | 0.0543 | > 100 |  |  |  |  |  |  |  |  |  | 
O=C(Nc1ccc(Cl)c(Cl)c1)C(=O)Nn1c(=S)[nH]c2ccccc2c1=O | > 100 | > 100 | > 100 | > 100 | > 100 | > 100 | > 100 | > 100 | > 100 |  |  |  |  |  |  |  |  |  |  | 
COc1cc(-c2cc(/C=C/C(=O)c3ccc4c(c3)OCO4)[nH]n2)cc(OC)c1OC |  | 7.34 | > 100 | 3.71 | 2.94 |  |  | 9.15 | 2.87 | 17 |  | 2.51 | 2.48 | 4.3 | 1.88 | 0.51 | 1.48 |  |  | 2.98
O=C(CCCCC(=O)N/N=C\c1ccccc1Cl)N/N=C\c1ccccc1Cl | 32.9 | > 100 | 39.6 | > 100 | > 100 |  | 44.4 |  | 32.7 | > 100 | 12.7 | 3.36 | 61.3 | 11.3 | 1.91 | 0.723 | 11 |  | 0.539 | 
O=C(/C=C/c1ccccn1)c1ccccc1O | 4.24 | 4.22 | 13.4 | 3.51 |  | 3.04 | 4.67 | 7.04 | 3.25 | 8.36 | 1.79 | 2.45 | 2.09 | 3.21 | 1.92 |  | 1.75 | 1.55 | 2.23 | 2.43
CCOC(=O)C1c2[nH]c3ccccc3c2CCN1C(=O)c1ccco1 (stereo not drawn) | > 10 | > 10 | > 10 | > 10 | > 10 | > 10 | > 10 | > 10 |  | > 10 |  |  |  |  |  |  |  |  |  | 
